Measured values reported in ChEMBL document CHEMBL3885881, “DrugMatrix”.

Organism: Rattus norvegicus
Test: DrugMatrix - Regimen: Daily Repeat
Type: toxicity, organism-based, Sprague-Dawley
Design: regimen Daily Repeat, gender Male, age 6-8 weeks
Details: in vivo, po, 750 mg/kg, route oral GAVAGE, dose level High, vehicle .5 % CMC; for BASOPHIL / EOSINOPHIL / ERYTHROCYTE COUNT / HEMATOCRIT / HEMOGLOBIN / LEUKOCYTE COUNT / LYMPHOCYTE / MEAN CORPUSCULAR HEMOGLOBIN / MEAN CORPUSCULAR HEMOGLOBIN CONCENTRATION / MEAN CORPUSCULAR VOLUME / MONOCYTE / NEUTROPHIL / PLATELET COUNT: tissue Blood; for ALANINE AMINOTRANSFERASE / ALBUMIN / ALKALINE PHOSPHATASE / ASPARTATE AMINOTRANSFERASE / BLOOD UREA NITROGEN / CARBON DIOXIDE / CHLORIDE / CHOLESTEROL / CREATINE PHOSPHOKINASE / CREATININE / GLUCOSE / LACTATE DEHYDROGENASE / LIPASE / PHOSPHORUS / POTASSIUM / SODIUM / TOTAL BILIRUBIN / TOTAL PROTEIN / URIC ACID: tissue Plasma

Question: With `ClC(Cl)(Cl)C(Cl)(Cl)Cl` [HEXACHLOROETHANE] as the compound, how does the BASOPHIL (96 h, time 4 day) read?
Answer: 0.3%

Question: What about the EOSINOPHIL (96 h, time 4 day) of the same compound?
Answer: 0.6%

Question: And the “ERYTHROCYTE COUNT” value (96 h, time 4 day)?
Answer: 7.16 x10E6/uL

Question: What about the HEMATOCRIT (96 h, time 4 day) of the same compound?
Answer: 45.77%

Question: What about the HEMOGLOBIN (96 h, time 4 day) of the same compound?
Answer: 14.9 G/DL

Question: What about the “LEUKOCYTE COUNT” value (96 h, time 4 day) of the same compound?
Answer: 12.35 x10E3/uL

Question: And the LYMPHOCYTE (96 h, time 4 day)?
Answer: 79.87%

Question: What about the “MEAN CORPUSCULAR HEMOGLOBIN” value (96 h, time 4 day) of the same compound?
Answer: 20.77 pg

Question: And the “MEAN CORPUSCULAR HEMOGLOBIN CONCENTRATION” value (96 h, time 4 day)?
Answer: 32.5 G/DL

Question: What about the “MEAN CORPUSCULAR VOLUME” value (96 h, time 4 day) of the same compound?
Answer: 63.9 fL

Question: What about the MONOCYTE (96 h, time 4 day) of the same compound?
Answer: 2.47%

Question: What about the NEUTROPHIL (96 h, time 4 day) of the same compound?
Answer: 16.1%

Question: And the “PLATELET COUNT” value (96 h, time 4 day)?
Answer: 1434.33 x10E3/uL

Question: What about the “ALANINE AMINOTRANSFERASE” value (96 h, time 4 day) of the same compound?
Answer: 28 u/L

Question: What about the ALBUMIN (96 h, time 4 day) of the same compound?
Answer: 3.87 G/DL

Question: And the “ALKALINE PHOSPHATASE” value (96 h, time 4 day)?
Answer: 292 u/L

Question: And the “ASPARTATE AMINOTRANSFERASE” value (96 h, time 4 day)?
Answer: 63.67 u/L

Question: And the “BLOOD UREA NITROGEN” value (96 h, time 4 day)?
Answer: 17.67 mg/dL

Question: And the “CARBON DIOXIDE” value (96 h, time 4 day)?
Answer: 21.67 mmol/L

Question: What about the CHLORIDE (96 h, time 4 day) of the same compound?
Answer: 108.33 MEQ/L

Question: What about the CHOLESTEROL (96 h, time 4 day) of the same compound?
Answer: 74.67 mg/dL

Question: What about the “CREATINE PHOSPHOKINASE” value (96 h, time 4 day) of the same compound?
Answer: 242 u/L

Question: What about the CREATININE (96 h, time 4 day) of the same compound?
Answer: 0.43 mg/dL

Question: And the GLUCOSE (96 h, time 4 day)?
Answer: 177 mg/dL

Question: And the “LACTATE DEHYDROGENASE” value (96 h, time 4 day)?
Answer: 82 u/L

Question: And the LIPASE (96 h, time 4 day)?
Answer: 19 u/L

Question: What about the PHOSPHORUS (96 h, time 4 day) of the same compound?
Answer: 11.57 mg/dL

Question: What about the POTASSIUM (96 h, time 4 day) of the same compound?
Answer: 5.67 MEQ/L

Question: And the SODIUM (96 h, time 4 day)?
Answer: 150 MEQ/L

Question: What about the “TOTAL BILIRUBIN” value (96 h, time 4 day) of the same compound?
Answer: 0.23 mg/dL

Question: And the “TOTAL PROTEIN” value (96 h, time 4 day)?
Answer: 6.5 G/DL

Question: And the “URIC ACID” value (96 h, time 4 day)?
Answer: 1.17 mg/dL

Question: And the BASOPHIL ([…], time 6 day)?
Answer: 0.4%

Question: And the EOSINOPHIL ([…], time 6 day)?
Answer: 0.57%

Question: What about the “ERYTHROCYTE COUNT” value ([…], time 6 day) of the same compound?
Answer: 7.65 x10E6/uL

Question: What about the HEMATOCRIT ([…], time 6 day) of the same compound?
Answer: 47.3%

Question: And the HEMOGLOBIN ([…], time 6 day)?
Answer: 15.03 G/DL

Question: What about the “LEUKOCYTE COUNT” value ([…], time 6 day) of the same compound?
Answer: 11.09 x10E3/uL

Question: And the LYMPHOCYTE ([…], time 6 day)?
Answer: 86.53%

Question: What about the “MEAN CORPUSCULAR HEMOGLOBIN” value ([…], time 6 day) of the same compound?
Answer: 19.67 pg

Question: And the “MEAN CORPUSCULAR HEMOGLOBIN CONCENTRATION” value ([…], time 6 day)?
Answer: 31.77 G/DL

Question: And the “MEAN CORPUSCULAR VOLUME” value ([…], time 6 day)?
Answer: 61.9 fL

Question: What about the MONOCYTE ([…], time 6 day) of the same compound?
Answer: 1.6%

Question: And the NEUTROPHIL ([…], time 6 day)?
Answer: 10.43%

Question: And the “PLATELET COUNT” value ([…], time 6 day)?
Answer: 1317.33 x10E3/uL

Question: What about the BASOPHIL ([…], time 14 day) of the same compound?
Answer: 0.38%

Question: And the EOSINOPHIL ([…], time 14 day)?
Answer: 1.98%

Question: What about the “ERYTHROCYTE COUNT” value ([…], time 14 day) of the same compound?
Answer: 8.11 x10E6/uL

Question: What about the HEMATOCRIT ([…], time 14 day) of the same compound?
Answer: 53.9%

Question: And the HEMOGLOBIN ([…], time 14 day)?
Answer: 15.78 G/DL

Question: And the “LEUKOCYTE COUNT” value ([…], time 14 day)?
Answer: 13.93 x10E3/uL

Question: And the LYMPHOCYTE ([…], time 14 day)?
Answer: 77.98%

Question: And the “MEAN CORPUSCULAR HEMOGLOBIN” value ([…], time 14 day)?
Answer: 19.5 pg

Question: And the “MEAN CORPUSCULAR HEMOGLOBIN CONCENTRATION” value ([…], time 14 day)?
Answer: 29.3 G/DL

Question: What about the “MEAN CORPUSCULAR VOLUME” value ([…], time 14 day) of the same compound?
Answer: 66.52 fL

Question: What about the MONOCYTE ([…], time 14 day) of the same compound?
Answer: 1.82%

Question: What about the NEUTROPHIL ([…], time 14 day) of the same compound?
Answer: 17.32%

Question: What about the “PLATELET COUNT” value ([…], time 14 day) of the same compound?
Answer: 1210 x10E3/uL

Question: And the “ALANINE AMINOTRANSFERASE” value ([…], time 6 day)?
Answer: 38.33 u/L

Question: What about the ALBUMIN ([…], time 6 day) of the same compound?
Answer: 3.9 G/DL

Question: And the “ALKALINE PHOSPHATASE” value ([…], time 6 day)?
Answer: 248.33 u/L

Question: What about the “ASPARTATE AMINOTRANSFERASE” value ([…], time 6 day) of the same compound?
Answer: 85.33 u/L

Question: And the “BLOOD UREA NITROGEN” value ([…], time 6 day)?
Answer: 17 mg/dL

Question: What about the “CARBON DIOXIDE” value ([…], time 6 day) of the same compound?
Answer: 24 mmol/L

Question: And the CHLORIDE ([…], time 6 day)?
Answer: 109.67 MEQ/L

Question: What about the CHOLESTEROL ([…], time 6 day) of the same compound?
Answer: 81 mg/dL

Question: And the “CREATINE PHOSPHOKINASE” value ([…], time 6 day)?
Answer: 545 u/L

Question: And the CREATININE ([…], time 6 day)?
Answer: 0.33 mg/dL

Question: What about the GLUCOSE ([…], time 6 day) of the same compound?
Answer: 171.67 mg/dL

Question: What about the “LACTATE DEHYDROGENASE” value ([…], time 6 day) of the same compound?
Answer: 134.33 u/L

Question: What about the LIPASE ([…], time 6 day) of the same compound?
Answer: 4.67 u/L

Question: And the PHOSPHORUS ([…], time 6 day)?
Answer: 12.5 mg/dL

Question: What about the POTASSIUM ([…], time 6 day) of the same compound?
Answer: 7.1 MEQ/L

Question: And the SODIUM ([…], time 6 day)?
Answer: 619.67 MEQ/L

Question: And the “TOTAL BILIRUBIN” value ([…], time 6 day)?
Answer: 0.23 mg/dL

Question: And the “TOTAL PROTEIN” value ([…], time 6 day)?
Answer: 6.6 G/DL

Question: What about the “URIC ACID” value ([…], time 6 day) of the same compound?
Answer: 1.57 mg/dL

Question: And the “ALANINE AMINOTRANSFERASE” value ([…], time 14 day)?
Answer: 49.8 u/L

Question: And the ALBUMIN ([…], time 14 day)?
Answer: 4.38 G/DL

Question: What about the “ALKALINE PHOSPHATASE” value ([…], time 14 day) of the same compound?
Answer: 322.6 u/L

Question: And the “ASPARTATE AMINOTRANSFERASE” value ([…], time 14 day)?
Answer: 75 u/L

Question: And the “BLOOD UREA NITROGEN” value ([…], time 14 day)?
Answer: 15.6 mg/dL

Question: And the “CARBON DIOXIDE” value ([…], time 14 day)?
Answer: 27.6 mmol/L

Question: And the CHLORIDE ([…], time 14 day)?
Answer: 104.8 MEQ/L

Question: And the CHOLESTEROL ([…], time 14 day)?
Answer: 84.4 mg/dL

Question: And the “CREATINE PHOSPHOKINASE” value ([…], time 14 day)?
Answer: 289.2 u/L

Question: And the CREATININE ([…], time 14 day)?
Answer: 0.42 mg/dL

Question: What about the GLUCOSE ([…], time 14 day) of the same compound?
Answer: 153.6 mg/dL

Question: What about the “LACTATE DEHYDROGENASE” value ([…], time 14 day) of the same compound?
Answer: 57.2 u/L

Question: And the LIPASE ([…], time 14 day)?
Answer: 7.2 u/L

Question: What about the PHOSPHORUS ([…], time 14 day) of the same compound?
Answer: 13.42 mg/dL

Question: And the POTASSIUM ([…], time 14 day)?
Answer: 6.7 MEQ/L

Question: What about the SODIUM ([…], time 14 day) of the same compound?
Answer: 151.4 MEQ/L

Question: What about the “TOTAL BILIRUBIN” value ([…], time 14 day) of the same compound?
Answer: 0.34 mg/dL

Question: What about the “TOTAL PROTEIN” value ([…], time 14 day) of the same compound?
Answer: 7.08 G/DL

Question: What about the “URIC ACID” value ([…], time 14 day) of the same compound?
Answer: 1.5 mg/dL
